Laboratory results taken from PubChem BioAssay (NCI).
“And” between values parts separate entries of the source, which are not always exact repeats. Identical values can stand only once.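 Cultured in 96-well plates, cells were exposed to test compound for 48 hours across five concentrations. The concentration for 50% growth inhibition is given as GI50. The concentration for full growth arrest is given as TGI.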

How the values were obtained:
Assay in all cases: NCI tumour cell line growth inhibition, 48 h
COLO 205 colon = tested on: COLO 205 colon
HCT-116 colon = tested on: HCT-116 colon
HCT-15 colon = tested on: HCT-15 colon
HL-60(TB) leukemia = tested on: HL-60(TB) leukemia
HOP-92 NSCLC = tested on: HOP-92 NSCLC
HS 578T breast = tested on: HS 578T breast
IGROV1 ovarian = tested on: IGROV1 ovarian
KM12 colon = tested on: KM12 colon
RPMI-8226 leukemia = tested on: RPMI-8226 leukemia
SK-OV-3 ovarian = tested on: SK-OV-3 ovarian

| SMILES | GI50 (COLO 205 colon) | GI50 (HCT-116 colon) | TGI (HCT-116 colon) | GI50 (HCT-15 colon) | TGI (HCT-15 colon) | GI50 (HL-60(TB) leukemia) | TGI (HL-60(TB) leukemia) | GI50 (HOP-92 NSCLC) | TGI (HOP-92 NSCLC) | GI50 (HS 578T breast) | TGI (HS 578T breast) | GI50 (IGROV1 ovarian) | TGI (IGROV1 ovarian) | GI50 (KM12 colon) | GI50 (RPMI-8226 leukemia) | TGI (RPMI-8226 leukemia) [µM] | GI50 (SK-OV-3 ovarian) | TGI (SK-OV-3 ovarian) [µM] | TGI (COLO 205 colon) | TGI (KM12 colon) [µM] |
| --- | --- | --- | --- | --- | --- | --- | --- | --- | --- | --- | --- | --- | --- | --- | --- | --- | --- | --- | --- | --- |
| CC(=O)Oc1ccccc1C(=O)Nc1ncc([N+](=O)[O-])s1 | 1.83 µM | 2.26 µM | 9.55 µM and > 61.2 µM | 2.94 µM | 31.3 µM and > 95 µM | 1.77 µM | 4.24 µM | 0.227 µM | 0.966 µM and 8.1 µM | 1.94 µM | 9.97 µM and > 37.5 µM | 2.85 µM | 20.8 µM and > 100 µM | 3 µM | 0.677 µM | > 100 | 3.2 µM | > 80.3 | – | – |
| N#Cc1c(N/N=C/c2ccc(Cl)cc2Cl)nc(N)nc1N1CCCC1 | 88.1 µM | 20.9 µM | > 100 µM | 19.3 µM | > 100 µM | 27.7 µM | 59.4 µM | 17.6 µM | 43.7 µM | 2.4 µM | 7.01 µM | 13.8 µM | 39.5 µM | > 100 µM | 30.9 µM | > 100 | 47.8 µM | > 100 | > 100 µM | > 100 |
| COC(=O)[C@@H](C)C[C@H](Cc1ccccc1)NC(=O)c1csc([C@@H](C[C@H](C(C)C)N(C)C(=O)[C@@H](NC(=O)[C@H]2CCCCN2C)C2CCCCC2)OC(C)=O)n1 | 0.000301 µM and < 0.0025 µM | 0.000325 µM and 0.0025 µM | 0.00325 µM | 0.00102 µM and 0.0025 µM | > 25 µM | 0.000306 µM and < 0.0025 µM | 0.00159 µM and < 0.0025 µM | 0.000977 µM and 0.0025 µM | 0.0112 µM | 0.0026 µM | – | 0.000631 µM and 0.0025 µM | > 25 µM | 0.000296 µM and 0.0025 µM | 0.000324 µM and 0.0025 µM | 3.64 | 0.000567 µM and 0.0025 µM | > 25 | 0.0026 µM and < 0.0025 µM | > 25 |
| CN1C(=O)/C(=C/c2c(Cl)n(C)c3ccccc23)c2ccccc21 | 4.59 µM and 0.485 µM | – | 1.39 µM | 2.69 µM and 1.89 µM | 3.56 µM | 0.44 µM | 10.2 µM | 1.8 µM | 3.34 µM | 3.46 µM and 2.42 µM | 9.29 µM and 5.34 µM | 4.34 µM | – | 3.34 µM and 1.31 µM | 1.53 µM | 3.94 | 4.84 µM and 1.57 µM | 2.91 | 1.63 µM | 3.49 |
| O=S(=O)(Nc1ccc(F)cc1F)c1ccc(-c2cnc(C3CC3)o2)cc1 | 0.767 µM | 0.421 µM | > 64 µM | 0.37 µM | 46.7 µM | 0.397 µM | 6.39 µM | 0.25 µM | 10.6 µM | 0.545 µM | 22.7 µM | 0.535 µM | 67.2 µM | 0.485 µM | 0.828 µM | 29.8 | 2.52 µM | 61.6 | 17.1 µM | 28.5 |
| O=C(O)CC(NC(=O)CP(=O)(O)O)C(=O)O (stereo not drawn) | – | 54.6 µM | > 10000 µM | – | 9160 µM | – | > 10000 µM | – | 2380 µM | 74.5 µM | > 10000 µM | – | > 8280 µM | 95.5 µM | – | > 10000 | – | > 7930 | > 10000 µM | > 10000 |
| COc1cc(OC)c(/C=C/c2c3ccccc3cc[n+]2C)c(OC)c1 | 0.774 µM | 1.4 µM | 13.5 µM | 24.7 µM | > 100 µM | 0.811 µM | 7.32 µM | 1.8 µM | 12.4 µM | 2.43 µM | 37.5 µM | 2.32 µM | 19.8 µM | 0.673 µM | 0.377 µM | 6.92 | 3.58 µM | > 100 | 2.95 µM | 6.85 |
| OCCCNc1nccc(-c2c(-c3ccc(F)cc3)nn3cc(C(F)(F)F)ccc23)n1 | 12.5 µM | 11.7 µM | > 25 µM | 8.1 µM | > 25 µM | > 19.6 µM | > 25 µM | 8.1 µM | > 25 µM | 19.2 µM | > 25 µM | 12 µM | > 25 µM | 11.1 µM | 22.9 µM | > 25 | 13 µM | > 25 | > 25 µM | > 25 |
| N=C(N)c1ccc2nc(-c3cc(CC(=O)N[C@@H](CC(=O)O)C(=O)O)cc(-c4cc(S(N)(=O)=O)ccc4O)c3O)[nH]c2c1 | > 100 µM | > 100 µM | > 100 µM | > 100 µM | > 100 µM | > 100 µM | > 100 µM | > 100 µM | > 100 µM | > 100 µM | > 100 µM | > 100 µM | > 100 µM | > 100 µM | > 100 µM | > 100 | > 100 µM | > 100 | > 100 µM | > 100 |
| NC(=O)c1cc(S(=O)(=O)Nc2nnc(-c3ccccc3)c(-c3ccccc3)n2)c(SCc2ccccc2)cc1Cl | > 100 µM | > 100 µM | > 100 µM | > 88.3 µM | > 100 µM | 23.1 µM | 49.6 µM | > 100 µM | > 100 µM | > 44.4 µM | > 75.5 µM | > 54.7 µM | > 94.3 µM | > 62.6 µM | > 44.1 µM | > 65.1 | > 74.7 µM | > 100 | > 100 µM | > 100 |
| C#COc1cccc(Nc2c(C#N)cnc3ncc(NC(=O)CCl)cc23)c1 | 40.1 µM | 14.8 µM | > 62.5 µM | > 62.5 µM | > 62.5 µM | 41 µM | > 62.5 µM | > 62.5 µM | > 62.5 µM | > 62.5 µM | > 62.5 µM | 17.1 µM | > 62.5 µM | 56.7 µM | > 62.5 µM | > 62.5 | > 62.5 µM | > 62.5 | > 62.5 µM | > 62.5 |
| COc1ccc(-c2coc3c4c(ccc3c2=O)OCO4)cc1OC | – | – | > 100 µM | – | > 100 µM | – | > 100 µM | – | > 100 µM | – | > 100 µM | – | > 100 µM | – | – | > 100 | – | 83.6 | > 100 µM | > 100 |
| CCn1sc2ccccc2c1=O | – | – | 30.7 µM | – | 27.5 µM | – | 13 µM | – | 22.5 µM | – | 32.4 µM | – | 19.6 µM | – | – | > 100 | – | > 54.9 | 29.3 µM | 18.8 |
| O=C(O)c1ccc(OCc2ccccc2)c(Cl)c1 | – | – | > 100 µM | – | > 100 µM | – | > 100 µM | – | > 100 µM | – | > 100 µM | – | > 100 µM | – | – | > 100 | – | > 100 | > 100 µM | > 100 |
